The values below come from patent US12384797B2, “Thioeno[3,2-b] pyridin-7-amine compounds for treating familial dysautonomia” (PTC THERAPEUTICS, INC., priority 2019, dated 2025).

The assay concerns Elongator complex protein 1 (ELP1, also referred to as IKBKAP). The assay is described as follows: IKBKAP-HTRF assay (IKBKAP protein in lysates of FD patient-derived fibroblasts). The class given is cell-based, human. The following applies: 48 hours incubation, 7-point concentration curve. As to the method:
The assay is used for the quantitative determination of Elongator complex protein 1 (ELP1, also referred to as IKBKAP) concentration in cell lysates using the HTRF® (Homogeneous Time-Resolved Fluorescence) technology. IKBKAP is detected in a sandwich HTRF assay by use of an anti-IKAP antibody labeled with a donor and an anti-IKAP antibody labeled with an acceptor.
Cells were thawed and incubated in DMEM-10% FBS for 72 hours. Cells were trypsinized, counted, and re-suspended to a concentration of 50,000 cells/mL in DMEM-10% FBS. A 199 μL aliquot of the cell suspensions were plated at 10,000 cells per well in a 96 well microtiter plate and incubated for 3 to 5 hours. […] Test compounds were serially diluted 3.16-fold in 100% DMSO to generate a 7-point concentration curve. A 1 μL aliquot of 200× compound solution was transferred to cell-containing wells, and cells were incubated for 48 hours in a cell culture incubator (37° C., 5% CO2, 100% relative humidity). Triplicate samples were set up for each compound concentration. After 48 hours, the supernatant was removed from the cells and 50 μL of the 1×LB4 lysis buffer, containing protease inhibitors, was added to the cells and incubated with shaking at room temperature for 1 hour. A 36 μL aliquot of this lysate was subsequently transferred to the 384-well plate containing 4 μL of the antibody solution (1:50 dilution of anti IKAP d2 and anti-IKAP K(9+8) in detection buffer). The 384-well plate was then centrifuged for 1 minute to bring the solutions to the bottom of the plate and incubated overnight at 4° C. Fluorescence for each well of the plate at 665 nm and 620 nm was measured was on the EnVision plate reader (Perkin Elmer). The ΔF for each sample is calculated by:
[formula] wherein Signal is the normalized fluorescence for each sample well and Blank is the average normalized average fluorescence for the Blank control wells.
The maximum fold increase (MFI) in IKBKAP protein abundance for compounds of Formula (I) or a form thereof relative to the vehicle control are provided in Table 1. MFI was calculated by dividing the ΔF value for each sample well by the sample ΔF for the vehicle control wells.
The EC2x for IKBKAP protein expression obtained from the 7-point concentration curve generated for each test compound according to the protocol in Biological Example 1 are also provided in Table 1. The term “EC2x for IKBKAP protein expression” is defined as the concentration of test compound that is effective in producing two times the amount of IKBKAP protein in a FD patient cell compared to the amount produced from the DMSO vehicle control.
In general terms: Time-resolved FRET reads energy transfer from a long-lived donor to a nearby acceptor.

Structures are written as SMILES.

`Cc1c(C[C@H](C)N)sc2c(NCc3ccco3)ccnc12` [Compound 34, 2-[(2S)-2-aminopropyl]-N-[(furan-2-yl)methyl]-3-methylthieno[3,2-b]pyridin-7-amine]: the “EC2x for IKBKAP protein expression (concentration producing two times the amount of IKBKAP protein vs DMSO vehicle control)” value was “**** (between >0.005 μM and ≤0.02 μM is indicated by four stars (****))”; the “MFI (maximum fold increase in IKBKAP protein abundance relative to the vehicle control)” value was “***** (>4.9 is indicated by five stars (*****))”.

Take `Cc1c(C[C@H](C)N)sc2c(NCc3ccncc3F)cc(Cl)nc12` [Compound 35, 2-[(2S)-2-aminopropyl]-5-chloro-N-[(3-fluoropyridin-4-yl)methyl]-3-methylthieno[3,2-b]pyridin-7-amine]: the “EC2x for IKBKAP protein expression (concentration producing two times the amount of IKBKAP protein vs DMSO vehicle control)” value is “***** (≤0.005 μM is indicated by five stars (*****))” and the “MFI (maximum fold increase in IKBKAP protein abundance relative to the vehicle control)” value is “***** (>4.9 is indicated by five stars (*****))”.

For `C[C@H](N)Cc1sc2c(NCc3ccco3)cc(Cl)nc2c1Cl` [Compound 36, 2-[(2S)-2-aminopropyl]-3,5-dichloro-N-[(furan-2-yl)methyl]thieno[3,2-b]pyridin-7-amine], the “EC2x for IKBKAP protein expression (concentration producing two times the amount of IKBKAP protein vs DMSO vehicle control)” value is on record as “***** (≤0.005 μM is indicated by five stars (*****))” and the “MFI (maximum fold increase in IKBKAP protein abundance relative to the vehicle control)” value is “***** (>4.9 is indicated by five stars (*****))”.

In the case of `C[C@H](N)Cc1sc2c(NCc3ccco3)cc(Cl)nc2c1Br` [Compound 37, 2-[(2S)-2-aminopropyl]-3-bromo-5-chloro-N-[(furan-2-yl)methyl]thieno[3,2-b]pyridin-7-amine], the “EC2x for IKBKAP protein expression (concentration producing two times the amount of IKBKAP protein vs DMSO vehicle control)” value is “***** (≤0.005 μM is indicated by five stars (*****))” and the “MFI (maximum fold increase in IKBKAP protein abundance relative to the vehicle control)” value was “***** (>4.9 is indicated by five stars (*****))”.

As to `C[C@H](N)Cc1sc2c(NCc3nccs3)cc(Cl)nc2c1Cl` [Compound 38, 2-[(2S)-2-aminopropyl]-3,5-dichloro-N-[(1,3-thiazol-2-yl)methyl]thieno[3,2-b]pyridin-7-amine], the “EC2x for IKBKAP protein expression (concentration producing two times the amount of IKBKAP protein vs DMSO vehicle control)” value is on record as “***** (≤0.005 μM is indicated by five stars (*****))” and the “MFI (maximum fold increase in IKBKAP protein abundance relative to the vehicle control)” value is given as “***** (>4.9 is indicated by five stars (*****))”.

Turning to `N[C@@H](CO)Cc1sc2c(NCc3ccco3)cc(Cl)nc2c1Cl` [Compound 39, (2R)-2-amino-3-(3,5-dichloro-7-{[(furan-2-yl)methyl]amino}thieno[3,2-b]pyridin-2-yl)propan-1-ol], the “EC2x for IKBKAP protein expression (concentration producing two times the amount of IKBKAP protein vs DMSO vehicle control)” value is on record as “***** (≤0.005 μM is indicated by five stars (*****))” and the “MFI (maximum fold increase in IKBKAP protein abundance relative to the vehicle control)” value is recorded as “***** (>4.9 is indicated by five stars (*****))”.

With `COC[C@H](N)Cc1sc2c(NCc3ccco3)cc(Cl)nc2c1Cl` [Compound 40, 2-[(2R)-2-amino-3-methoxypropyl]-3,5-dichloro-N-[(furan-2-yl)methyl]thieno[3,2-b]pyridin-7-amine], the “EC2x for IKBKAP protein expression (concentration producing two times the amount of IKBKAP protein vs DMSO vehicle control)” value is listed as “***** (≤0.005 μM is indicated by five stars (*****))” and the “MFI (maximum fold increase in IKBKAP protein abundance relative to the vehicle control)” value was “***** (>4.9 is indicated by five stars (*****))”.

For `N[C@@H](CO)Cc1sc2c(NCc3ccco3)cc(Cl)nc2c1Br` [Compound 41, (2R)-2-amino-3-(3-bromo-5-chloro-7-{[(furan-2-yl)methyl]amino}thieno[3,2-b]pyridin-2-yl)propan-1-ol], the “EC2x for IKBKAP protein expression (concentration producing two times the amount of IKBKAP protein vs DMSO vehicle control)” value is listed as “***** (≤0.005 μM is indicated by five stars (*****))” and the “MFI (maximum fold increase in IKBKAP protein abundance relative to the vehicle control)” value is listed as “***** (>4.9 is indicated by five stars (*****))”.

For `CN[C@@H](C)Cc1sc2c(NCc3ccco3)cc(Cl)nc2c1C` [Compound 42, 5-chloro-N-[(furan-2-yl)methyl]-3-methyl-2-[(2S)-2-(methylamino)propyl]thieno[3,2-b]pyridin-7-amine], the “EC2x for IKBKAP protein expression (concentration producing two times the amount of IKBKAP protein vs DMSO vehicle control)” value is “**** (between >0.005 μM and ≤0.02 μM is indicated by four stars (****))”; the “MFI (maximum fold increase in IKBKAP protein abundance relative to the vehicle control)” value was “***** (>4.9 is indicated by five stars (*****))”.

On to `C[C@H](N)Cc1sc2c(NCc3nccs3)cc(Cl)nc2c1Br` [Compound 43, 2-[(2S)-2-aminopropyl]-3-bromo-5-chloro-N-[(1,3-thiazol-2-yl)methyl]thieno[3,2-b]pyridin-7-amine], for which the “EC2x for IKBKAP protein expression (concentration producing two times the amount of IKBKAP protein vs DMSO vehicle control)” value is “***** (≤0.005 μM is indicated by five stars (*****))” and the “MFI (maximum fold increase in IKBKAP protein abundance relative to the vehicle control)” value is “***** (>4.9 is indicated by five stars (*****))”.

On to `COC[C@H](N)Cc1sc2c(NCc3ccco3)cc(Cl)nc2c1Br` [Compound 44, 2-[(2R)-2-amino-3-methoxypropyl]-3-bromo-5-chloro-N-[(furan-2-yl)methyl]thieno[3,2-b]pyridin-7-amine], for which the “EC2x for IKBKAP protein expression (concentration producing two times the amount of IKBKAP protein vs DMSO vehicle control)” value is “***** (≤0.005 μM is indicated by five stars (*****))” and the “MFI (maximum fold increase in IKBKAP protein abundance relative to the vehicle control)” value is on record as “***** (>4.9 is indicated by five stars (*****))”.

On to `COC[C@H](N)Cc1sc2c(NCc3ccco3)cc(Cl)nc2c1C` [Compound 45, 2-[(2R)-2-amino-3-methoxypropyl]-5-chloro-N-[(furan-2-yl)methyl]-3-methylthieno[3,2-b]pyridin-7-amine], for which the “EC2x for IKBKAP protein expression (concentration producing two times the amount of IKBKAP protein vs DMSO vehicle control)” value was “***** (≤0.005 μM is indicated by five stars (*****))” and the “MFI (maximum fold increase in IKBKAP protein abundance relative to the vehicle control)” value is listed as “***** (>4.9 is indicated by five stars (*****))”.

For the compound `N[C@@H](CF)Cc1sc2c(NCc3ccco3)cc(Cl)nc2c1Br` [Compound 46, 2-[(2R)-2-amino-3-fluoropropyl]-3-bromo-5-chloro-N-[(furan-2-yl)methyl]thieno[3,2-b]pyridin-7-amine], the “EC2x for IKBKAP protein expression (concentration producing two times the amount of IKBKAP protein vs DMSO vehicle control)” value is “***** (≤0.005 μM is indicated by five stars (*****))” and the “MFI (maximum fold increase in IKBKAP protein abundance relative to the vehicle control)” value is given as “***** (>4.9 is indicated by five stars (*****))”.

On to `N[C@@H](CCF)Cc1sc2c(NCc3nccs3)cc(Cl)nc2c1Cl` [Compound 47, 2-[(2S)-2-amino-4-fluorobutyl]-3,5-dichloro-N-[(1,3-thiazol-2-yl)methyl]thieno[3,2-b]pyridin-7-amine], for which the “EC2x for IKBKAP protein expression (concentration producing two times the amount of IKBKAP protein vs DMSO vehicle control)” value is recorded as “***** (≤0.005 μM is indicated by five stars (*****))” and the “MFI (maximum fold increase in IKBKAP protein abundance relative to the vehicle control)” value was “***** (>4.9 is indicated by five stars (*****))”.

As for `N[C@@H](CCO)Cc1sc2c(NCc3nccs3)cc(Cl)nc2c1Cl` [Compound 48, (3S)-3-amino-4-(3,5-dichloro-7-{[(1,3-thiazol-2-yl)methyl]amino}thieno[3,2-b]pyridin-2-yl)butan-1-ol], the “EC2x for IKBKAP protein expression (concentration producing two times the amount of IKBKAP protein vs DMSO vehicle control)” value is on record as “***** (≤0.005 μM is indicated by five stars (*****))” and the “MFI (maximum fold increase in IKBKAP protein abundance relative to the vehicle control)” value is “***** (>4.9 is indicated by five stars (*****))”.

Take `C[C@H](N)Cc1sc2c(NCc3ccco3)cc(C#N)nc2c1Br` [Compound 49, 2-[(2S)-2-aminopropyl]-3-bromo-7-{[(furan-2-yl)methyl]amino}thieno[3,2-b]pyridine-5-carbonitrile]: the “EC2x for IKBKAP protein expression (concentration producing two times the amount of IKBKAP protein vs DMSO vehicle control)” value is listed as “***** (≤0.005 μM is indicated by five stars (*****))” and the “MFI (maximum fold increase in IKBKAP protein abundance relative to the vehicle control)” value is “***** (>4.9 is indicated by five stars (*****))”.

Regarding `C[C@H](N)Cc1sc2c(NCc3ccco3)cc(C#N)nc2c1C#N` [Compound 50, 2-[(2S)-2-aminopropyl]-7-{[(furan-2-yl)methyl]amino}thieno[3,2-b]pyridine-3,5-dicarbonitrile], the “EC2x for IKBKAP protein expression (concentration producing two times the amount of IKBKAP protein vs DMSO vehicle control)” value is “**** (between >0.005 μM and ≤0.02 μM is indicated by four stars (****))”; the “MFI (maximum fold increase in IKBKAP protein abundance relative to the vehicle control)” value was “**** (between >3.9 and ≤4.9 is indicated by four stars (****))”.

Consider `C[C@H](N)Cc1sc2c(NCc3ccco3)cc(Cl)nc2c1C1CC1` [Compound 51, 2-[(2S)-2-aminopropyl]-5-chloro-3-cyclopropyl-N-[(furan-2-yl)methyl]thieno[3,2-b]pyridin-7-amine], for which the “EC2x for IKBKAP protein expression (concentration producing two times the amount of IKBKAP protein vs DMSO vehicle control)” value is “***** (≤0.005 μM is indicated by five stars (*****))” and the “MFI (maximum fold increase in IKBKAP protein abundance relative to the vehicle control)” value is given as “***** (>4.9 is indicated by five stars (*****))”.
